Measured values reported in patent publication US20210355104A1, “ADENOSINE RECEPTOR BINDING COMPOUNDS” (Nikang Therapeuticsm Inc., priority 2018, published 2021).
Where “and” joins values, the source holds several entries; their conditions need not be identical. Identical values can stand only once.

Target: Adenosine A2A receptor (Homo sapiens, UniProt P29274)
Experiment: cAMP assay in 293A cells stably expressing the adenosine A2A receptor (CGS21680 stimulation, HTRF)
Type: cell-based
Design: expressed in transfected cells; host or cells: 293A cells (Invitrogen, Cat# R705-07) infected with A2A-expressing lentivirus (custom packaged by Biosettia), puromycin selected
Conditions: 293A-A2AR cells, 0.1% BSA, 1 uM CGS; read-out: cAMP (nM) 0.1% BSA, 1 uM CGS

Sequence of Adenosine A2A receptor (P29274 whole entry): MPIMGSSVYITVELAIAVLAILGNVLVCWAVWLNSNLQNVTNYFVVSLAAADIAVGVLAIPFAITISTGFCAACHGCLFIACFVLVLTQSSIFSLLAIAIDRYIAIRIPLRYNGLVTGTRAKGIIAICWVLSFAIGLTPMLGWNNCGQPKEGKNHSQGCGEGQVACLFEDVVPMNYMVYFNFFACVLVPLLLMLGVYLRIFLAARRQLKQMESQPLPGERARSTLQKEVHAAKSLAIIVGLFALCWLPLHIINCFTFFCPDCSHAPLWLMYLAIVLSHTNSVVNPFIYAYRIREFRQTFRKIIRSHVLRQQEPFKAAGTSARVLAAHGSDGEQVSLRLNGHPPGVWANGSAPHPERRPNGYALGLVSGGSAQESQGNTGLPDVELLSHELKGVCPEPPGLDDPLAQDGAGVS

IC50	Compound
1420 nM	Cc1cc(-c2c(NCc3cccc(C(C)(C)C#N)n3)nc(N)nc2-c2ccc(F)cc2)cc(C(F)F)n1 [Example 356, 2-(6-(((2-amino-5-(2-(difluoromethyl)-6-methylpyridin-4-yl)-6-(4-fluorophenyl)pyrimidin-4-yl)amino)methyl)pyridin-2-yl)-2-methylpropanenitrile]
3910 nM and 3930 nM	Cc1cc(-c2c(OCc3nc4cc(C(C)(C)O)ccc4n3C)nc(N)nc2-c2ccc(F)cc2)cc(C(F)F)n1 [Example 357, 2-(2-(((2-amino-5-(2-(difluoromethyl)-6-methylpyridin-4-yl)-6-(4-fluorophenyl)pyrimidin-4-yl)oxy)methyl)-1-methyl-1H-benzo[d]imidazol-5-yl)propan-2-ol]
940 nM and 1060 nM	Cc1cc(-c2c(OCc3nc4ccc(C(C)(C)O)cc4n3C)nc(N)nc2-c2ccc(F)cc2)cc(C(F)F)n1 [Example 358, 2-(2-(((2-amino-5-(2-(difluoromethyl)-6-methylpyridin-4-yl)-6-(4-fluorophenyl)pyrimidin-4-yl)oxy)methyl)-1-methyl-1H-benzo[d]imidazol-6-yl)propan-2-ol]
9470 nM and 8890 nM	Cc1cc(-c2c(OCc3nc4c(C(C)(C)C(=O)O)cccc4n3C)nc(N)nc2-c2ccc(F)cc2)cc(C(F)F)n1 [Example 359, 2-(2-(((2-amino-5-(2-(difluoromethyl)-6-methylpyridin-4-yl)-6-(4-fluorophenyl)pyrimidin-4-yl)oxy)methyl)-1-methyl-1H-benzo[d]imidazol-4-yl)-2-methylpropanoic acid]
50 nM and 51 nM and 115 nM	CCC(C)(C#N)c1cccc(COc2nc(N)nc(-c3ccc(F)cc3)c2-c2cc(C)nc(C(F)F)c2)n1 (centres unmarked) [Example 360, 2-(6-(((2-amino-5-(2-(difluoromethyl)-6-methylpyridin-4-yl)-6-(4-fluorophenyl)pyrimidin-4-yl)oxy)methyl)pyridin-2-yl)-2-methylbutanenitrile]
854 nM and 1110 nM	Cc1cc(-c2c(OCc3nc4c(C(C)(C)O)cccc4n3C)nc(N)nc2-c2ccc(F)cc2)cc(C(F)F)n1 [Example 361, 2-(2-(((2-amino-5-(2-(difluoromethyl)-6-methylpyridin-4-yl)-6-(4-fluorophenyl)pyrimidin-4-yl)oxy)methyl)-1-methyl-1H-benzo[d]imidazol-4-yl)propan-2-ol]
85 nM and 158 nM and 45 nM	Cc1cc(-c2c(OCCc3cccc(C(C)(C)C#N)n3)nc(N)nc2-c2ccc(F)cc2)cc(C(F)F)n1 [Example 362, 2-(6-(2-((2-amino-5-(2-(difluoromethyl)-6-methylpyridin-4-yl)-6-(4-fluorophenyl)pyrimidin-4-yl)oxy)ethyl)pyridin-2-yl)-2-methylpropanenitrile]
4800 nM	Cc1cc(-c2c(OCc3cccc(C(C)(C)C(=O)O)c3)nc(N)nc2-c2ccc(F)cc2)cc(C(F)F)n1 [Example 363, 2-(3-(((2-amino-5-(2-(difluoromethyl)-6-methylpyridin-4-yl)-6-(4-fluorophenyl)pyrimidin-4-yl)oxy)methyl)phenyl)-2-methylpropanoic acid]
> 25000 nM	Cc1cc(-c2c(OCc3ccccn3)nc(NCC(=O)O)nc2-c2ccc(F)cc2)cc(C(F)F)n1 [Example 364, (5-(2-(difluoromethyl)-6-methylpyridin-4-yl)-4-(4-fluorophenyl)-6-(pyridin-2-ylmethoxy)pyrimidin-2-yl)glycine]
> 25000 nM	CCn1c(COc2nc(N)nc(-c3ccc(F)cc3)c2-c2cc(C)nc(C(F)F)c2)nc2ccc(C(C)(C)C(=O)O)nc21 [Example 365, 2-(2-(((2-amino-5-(2-(difluoromethyl)-6-methylpyridin-4-yl)-6-(4-fluorophenyl)pyrimidin-4-yl)oxy)methyl)-3-ethyl-3H-imidazo[4,5-b]pyridin-5-yl)-2-methylpropanoic acid]
1690 nM	Cc1cc(-c2c(OCc3nc(C(C)(C)O)cs3)nc(N)nc2-c2ccc(F)cc2)cc(C(F)F)n1 [Example 366, 2-(2-(((2-amino-5-(2-(difluoromethyl)-6-methylpyridin-4-yl)-6-(4-fluorophenyl)pyrimidin-4-yl)oxy)methyl)thiazol-4-yl)propan-2-ol]
11800 nM	Cc1cc(-c2c(OCc3ccc(F)c(C(C)(C)C(=O)O)c3)nc(N)nc2-c2ccc(F)cc2)cc(C(F)F)n1 [Example 367, 2-(5-(((2-amino-5-(2-(difluoromethyl)-6-methylpyridin-4-yl)-6-(4-fluorophenyl)pyrimidin-4-yl)oxy)methyl)-2-fluorophenyl)-2-methylpropanoic acid]
> 25000 nM	Cc1cc(-c2c(OCc3nc4ccc(C(C)(C)C(=O)O)cc4n3C)nc(N)nc2-c2ccc(F)cc2)cc(C(F)F)n1 [Example 368, 2-(2-(((2-amino-5-(2-(difluoromethyl)-6-methylpyridin-4-yl)-6-(4-fluorophenyl)pyrimidin-4-yl)oxy)methyl)-1-methyl-1H-benzo[d]imidazol-6-yl)-2-methylpropanoic acid]
> 25000 nM	Cc1cc(-c2c(OCc3nc4cc(C(C)(C)C(=O)O)ccc4n3C)nc(N)nc2-c2ccc(F)cc2)cc(C(F)F)n1 [Example 369, 2-(2-(((2-amino-5-(2-(difluoromethyl)-6-methylpyridin-4-yl)-6-(4-fluorophenyl)pyrimidin-4-yl)oxy)methyl)-1-methyl-1H-benzo[d]imidazol-5-yl)-2-methylpropanoic acid]
5430 nM	Cc1cc(-c2c(OCc3cccc(C(C)(C)C(=O)O)c3F)nc(N)nc2-c2ccc(F)cc2)cc(C(F)F)n1 [Example 370, 2-(3-(((2-amino-5-(2-(difluoromethyl)-6-methylpyridin-4-yl)-6-(4-fluorophenyl)pyrimidin-4-yl)oxy)methyl)-2-fluorophenyl)-2-methylpropanoic acid]
2360 nM	Cc1cc(-c2c(OCc3ncc(C(C)(C)O)s3)nc(N)nc2-c2ccc(F)cc2)cc(C(F)F)n1 [Example 371, 2-(2-(((2-amino-5-(2-(difluoromethyl)-6-methylpyridin-4-yl)-6-(4-fluorophenyl)pyrimidin-4-yl)oxy)methyl)thiazol-5-yl)propan-2-ol]
128 nM and 130 nM and 160 nM	Cc1cc(-c2c(OCCN(C)c3nccc(C(C)(C)C#N)n3)nc(N)nc2-c2ccc(F)cc2)cc(C(F)F)n1 [Example 372, 2-(2-((2-((2-amino-5-(2-(difluoromethyl)-6-methylpyridin-4-yl)-6-(4-fluorophenyl)pyrimidin-4-yl)oxy)ethyl)(methyl)amino)pyrimidin-4-yl)-2-methylpropanenitrile]
> 25000 nM	Cc1cc(-c2c(OCc3nc4nc(C(C)(C)C(=O)O)ccc4n3C)nc(N)nc2-c2ccc(F)cc2)cc(C(F)F)n1 [Example 374, 2-(2-(((2-amino-5-(2-(difluoromethyl)-6-methylpyridin-4-yl)-6-(4-fluorophenyl)pyrimidin-4-yl)oxy)methyl)-1-methyl-1H-imidazo[4,5-b]pyridin-5-yl)-2-methylpropanoic acid]
17600 nM and 23300 nM	Cc1cc(-c2c(OCc3ccc(F)c(C(C)(C)C(=O)O)n3)nc(N)nc2-c2ccc(F)cc2)cc(C(F)F)n1 [Example 375, 2-(6-(((2-amino-5-(2-(difluoromethyl)-6-methylpyridin-4-yl)-6-(4-fluorophenyl)pyrimidin-4-yl)oxy)methyl)-3-fluoropyridin-2-yl)-2-methylpropanoic acid]
133 nM and 209 nM and 375 nM and 142 nM and 48 nM	Cc1cc(-c2c(OCc3cccc(N)n3)nc(N)nc2-c2ccc(F)cc2)cc(C(F)F)n1 [Example 376]
